Assay results reported in patent US10213409B2, “Substituted benzofurans, benzothiophenes, benzoselenophenes and indoles and their use as tubulin polymerisation inhibitors” (Bionomics Limited, priority 2006, dated 2019).

Experiments:
[1] = system: MDA-MB-231 solid orthotopic tumors; test: Tumor Growth Inhibition; format: in vivo, Balb/c nu/nu mice; details: 40 mg/kg i.v., two cycles, 72 days; vs vehicle, significant from day 4 (p<0.001) to Day 70, FIG. 5
Description: Balb/c nu/nu mice bearing MDA-MB-231 solid orthotopic tumors were treated with compound Example 29 at 40 mg/kg. Animals were i.v. dosed with a total of two cycles of Example 29 treatment. Each cycle was dosing on […] followed by a three week no-dosing period. Tumor growth represented as a ratio to initial tumor volume is shown over a total of 72-days.
Tumor growth as well as animal health were monitored for up to 72 days post-day 1 of treatment. […] Significant differences in tumor growth between Example 29 treated (n=64) and vehicle treated (n=20) animals were observed as early as day 4 (p<0.001; unpaired t-test; Prism® analysis) through to Day 70.

[2] = system: MDA MB 231 orthotopic xenografts; test: Vascular Disruption Assay (tumor perfusion, Hoechst 33342); format: in vivo, BALB/c-nu/nu mice; details: compared with CA4 / CA4P, FIG. 4; i.v., 24 hours after injection
Excerpt: Vascular Disruption Assay:
Female athymic BALB/c-nu/nu mice (nude mice) were used for this study. Mice were between 6-8 weeks old and were purchased from the Animal Resource Centre, Perth, Western Australia and allowed to acclimatize for a couple of days. All the animals were housed under pathogen-free conditions and cared for in accordance with Flinders University of South Australia and NH&MRC guidelines and the Australian Code of Practice for the care and use of animals for scientific purposes. The human breast cancer MDA MB 231 was grown as orthotopic xenografts in the mammary fat pad of nude mice. Each mouse was injected with 2×10^6 cells in 50 μl Dulbecco's PBS subcutaneously just above the mammary fat pad, below the right forward limb. Tumors were selected for treatment when they reached a diameter of […] (3 weeks after implantation). The test compound (Example 29) was dissolved in saline solution and injected intravenously at concentrations ranging from 150 mg/kg-1 mg/kg in a total volume of 400 ul. […] Non-tumor regions were mapped on Hoechst 33342 composite images and excluded from the quantitation analysis. Quantitation was performed by measuring the pixel area of Hoechst 33342 staining and the total pixel area of the tumor region. Perfusion was expressed as a percentage of Hoechst 33342 stained area to total tumor area (see FIG. 4).

[3] = system: Human umbilical vein endothelial cells (HUVECs), tumour type activated (Tum); test: Proliferation Assay - Activated Endothelium (MTT); format: cell-based
Description: Proliferation Assay—Activated Endothelium:
Cells were cultured overnight at 37° C. 5% CO2. Medium was subsequently replaced with fresh medium including the compound or negative control. Cells were cultured for a period of 48 hrs. An MTT assay was performed to measure changes in cell numbers. Briefly, 20 μl of MTT reagent was added to cells containing 100 μl of EGM2 and incubated at 37° C. for 2 hours.

[4] = system: Human umbilical vein endothelial cells (HUVECs), normal quiescent type (Norm); test: Proliferation Assay - Quiescent Endothelium (MTT); format: cell-based; details: HUVEC
Description: Proliferation Assay—Quiescent Endothelium:
Cells were cultured overnight at 37° C. 5% CO2. Medium was subsequently replaced with fresh medium including the compound or negative control. Cells were cultured for a period of 48 hrs. An MTT assay was performed to measure changes in cell numbers. Briefly, 20 μl of MTT reagent was added to cells containing 100 μl of EBM2+0.5% FBS and incubated at 37° C. for 2 hours.

tubulin = test: Tubulin Polymerisation Assay (fluorescent-based kit); format: biochemical; details: compared with CA4 (1), FIG. 3
Description: Tubulin Polymerisation Assay:
Tubulin polymerisation inhibition assays were performed using a fluorescent-based detection kit (#BK011, Cytoskeleton) according to the instructions of the manufacturer. The test compound was added to a 2 mg/ml tubulin solution containing 20% glycerol and 1 mM GTP in 1× Buffer 1 (Buffer 1: 80 mM Piperazine-N,N′-bis[2-ethanesulfonic acid] sequisodium salt; 2 mM magnesium chloride; 0.5 mM Ethylene glycol-bis(b-amino-ethyl ether)N,N,N′,N′-tetra-acetic acid, pH 6.9, 10 uM fluorescent reporter). Fluorescence was measured over a period of 42 minutes at 1 minute intervals. Increased fluorescence indicates increase in tubulin polymerisation. There is a ten-fold increase in the affinity of the fluorescent reporter for polymerised tubulin compared to monomeric tubulin subunits. The result is a fluorescence signal that closely follows tubulin polymerisation.

MCF-7 = test: Growth inhibition, Sulforhodamine B (SRB) or Systmex cell counting (CC) assay, MCF-7; format: cell-based; details: Homo sapiens, MCF7, concentration required to inhibit net cell growth by 50%, read-out: Cancer cell line IC50

COc1cc(C(=O)c2c(C)oc3c(OP(=O)([O-])[O-])c(OC)ccc23)cc(OC)c1OC.[Na+].[Na+] [Example 29, Disodium 6-methoxy-2-methyl-3-(3,4,5-trimethoxybenzoyl)benzofuran-7-yl phosphate]
tumor growth (ratio to initial tumor volume) [1]: tumor growth inhibition | potency at shutting-down tumour vasculature (reduction in tumour perfusion) [2]: significantly greater potency than CA4 (1)

COc1cc(C(=O)c2c(C)oc3c(O)c(OC)ccc23)cc(OC)c1OC [Example 11, 2-Methyl-7-hydroxy-3-(3,4,5-trimethoxybenzoyl)-6-methoxybenzofuran]
IC50 ([3]; Homo sapiens, HUVEC, tumour type activated endothelial cells): 0.1 to 1 nM | potency towards activated (tumour) versus quiescent (normal) endothelial cells ([3]; comparison of activated and quiescent HUVEC assays, FIGS. 1 and 2, Table 1): higher potency towards tumour endothelial cells (activated) over normal endothelial cells (quiescent) | IC50 [4]: 10 to 100 nM | potency in inhibiting tubulin polymerisation (tubulin): significantly greater potency than CA4 (1) | IC50 (MCF-7): 2 nM
